In paper PMC5761851, “Application of a phenotypic drug discovery strategy to identify biological and chemical starting points for inhibition of TSLP production in lung epithelial cells” (PLoS ONE, 2018):

Columns and labels:
acetylcholinesterase = target: T1, acetylcholinesterase (Homo sapiens, UniProt P22303); test: BioPrint panel: acetylcholinesterase (h); assay type: biochemical; conditions: 1 micromolar, read-out: percentage of inhibition of activity
T1 construct: purchased Eurofins Pharma Discovery Services (KinaseProfiler; Cerep BioPrint panel)
Text: (§1) Supplement pone.0189247.s004.xlsx, sheet "Bioprint Selectivity Panel" | column: %

beta 1 = target: T2, beta 1 (Homo sapiens, UniProt P08588); test: BioPrint panel: beta 1 (h) (agonist); assay type: binding; conditions: 1 micromolar, read-out: percentage of inhibition of activity
T2 construct: purchased Eurofins Pharma Discovery Services (KinaseProfiler; Cerep BioPrint panel)
Text: as §1

ERK2 (P42mapk) = target: T3, ERK2 (P42mapk) (Homo sapiens, UniProt P28482); test: BioPrint panel: ERK2 (h) (P42mapk); assay type: biochemical; conditions: 1 micromolar, read-out: percentage of inhibition of activity
T3 construct: purchased Eurofins Pharma Discovery Services (KinaseProfiler; Cerep BioPrint panel)
Text: as §1

5-HT1A = target: T4, 5-HT1A (Homo sapiens, UniProt P08908); test: BioPrint panel: 5-HT1A (h) (agonist); assay type: binding; conditions: 1 micromolar, read-out: percentage of inhibition of activity
T4 construct: purchased Eurofins Pharma Discovery Services (KinaseProfiler; Cerep BioPrint panel)
Text: as §1

CCR2 = target: T5, CCR2 (Homo sapiens, UniProt P41597); test: BioPrint panel: CCR2 (h) (agonist); assay type: binding; conditions: 1 micromolar, read-out: percentage of inhibition of activity
T5 construct: purchased Eurofins Pharma Discovery Services (KinaseProfiler; Cerep BioPrint panel)
Text: as §1

APJ (apelin) = target: T6, APJ (apelin) (Homo sapiens, UniProt P35414); test: BioPrint panel: APJ (apelin) (h) (agonist); assay type: binding; conditions: 1 micromolar, read-out: percentage of inhibition of activity
T6 construct: purchased Eurofins Pharma Discovery Services (KinaseProfiler; Cerep BioPrint panel)
Text: as §1

alpha 2B = target: T7, alpha 2B (Homo sapiens, UniProt P18089); test: BioPrint panel: alpha 2B (h) (antagonist); assay type: binding; conditions: 1 micromolar, read-out: percentage of inhibition of activity
T7 construct: purchased Eurofins Pharma Discovery Services (KinaseProfiler; Cerep BioPrint panel)
Text: as §1

MC1 = target: T8, MC1 (Mus musculus, UniProt Q01727); test: BioPrint panel: MC1 (agonist); assay type: binding; conditions: 1 micromolar, read-out: percentage of inhibition of activity
T8 construct: purchased Eurofins Pharma Discovery Services (KinaseProfiler; Cerep BioPrint panel)
Text: as §1

[1] = tested on: COMT (catechol- O-methyl transferase); test: BioPrint panel: COMT (catechol- O-methyl transferase); assay type: biochemical; conditions: 1 micromolar
Text: as §1

5-HT2B = target: T9, 5-HT2B (Homo sapiens, UniProt P41595); test: BioPrint panel: 5-HT2B (h) (agonist); assay type: binding; conditions: 1 micromolar, read-out: percentage of inhibition of activity
T9 construct: purchased Eurofins Pharma Discovery Services (KinaseProfiler; Cerep BioPrint panel)
Text: as §1

Na+ channel (site 2) = test: BioPrint panel: Na+ channel (site 2) (antagonist); assay type: binding; conditions: 1 micromolar
Text: as §1

GABAB(1b) = target: T10, GABAB(1b) (Homo sapiens, UniProt Q9UBS5); test: BioPrint panel: GABAB(1b) (h) (antagonist); assay type: binding; conditions: 1 micromolar, read-out: percentage of inhibition of activity
T10 construct: purchased Eurofins Pharma Discovery Services (KinaseProfiler; Cerep BioPrint panel)
Text: as §1

[2] = target: T11, xanthine oxidase/ superoxide O2- scavenging (Bos taurus, UniProt P80457); test: BioPrint panel: xanthine oxidase/ superoxide O2- scavenging; assay type: biochemical; conditions: 1 micromolar, read-out: percentage of inhibition of activity
T11 construct: purchased Eurofins Pharma Discovery Services (KinaseProfiler; Cerep BioPrint panel)
Text: as §1

COX1 = target: T12, COX1 (Homo sapiens, UniProt P23219); test: BioPrint panel: COX1 (h); assay type: biochemical; conditions: 1 micromolar, read-out: percentage of inhibition of activity
T12 construct: purchased Eurofins Pharma Discovery Services (KinaseProfiler; Cerep BioPrint panel)
Text: as §1

N neuronal a4 b2 = target: T13, N neuronal a4 b2 (Homo sapiens, UniProt P17787+P43681); test: BioPrint panel: N neuronal a4 b2 (h) (agonist); assay type: binding; conditions: 1 micromolar, read-out: percentage of inhibition of activity
T13 construct: purchased Eurofins Pharma Discovery Services (KinaseProfiler; Cerep BioPrint panel)
Text: as §1

A3 = target: T14, A3 (Homo sapiens, UniProt P0DMS8); test: BioPrint panel: A3 (h) (agonist); assay type: binding; conditions: 1 micromolar, read-out: percentage of inhibition of activity
T14 construct: purchased Eurofins Pharma Discovery Services (KinaseProfiler; Cerep BioPrint panel)
Text: as §1

ERalpha = target: T15, ERalpha (Homo sapiens, UniProt P03372); test: BioPrint panel: ERalpha (h) (agonist fluoligand); assay type: binding; conditions: 1 micromolar, read-out: percentage of inhibition of activity
T15 construct: purchased Eurofins Pharma Discovery Services (KinaseProfiler; Cerep BioPrint panel)
Text: as §1

LXRbeta = target: T16, LXRbeta (Homo sapiens, UniProt P55055); test: BioPrint panel: LXRbeta (h) (agonist); assay type: binding; conditions: 1 micromolar, read-out: percentage of inhibition of activity
T16 construct: purchased Eurofins Pharma Discovery Services (KinaseProfiler; Cerep BioPrint panel)
Text: as §1

Guanylyl cylcase = test: BioPrint panel: Guanylyl cylcase (activator); assay type: biochemical; conditions: 1 micromolar
Text: as §1

alpha 1A = target: T17, alpha 1A (Homo sapiens, UniProt P35348); test: BioPrint panel: alpha 1A (h) (antagonist); assay type: binding; conditions: 1 micromolar, read-out: percentage of inhibition of activity
T17 construct: purchased Eurofins Pharma Discovery Services (KinaseProfiler; Cerep BioPrint panel)
Text: as §1

beta 3 = target: T18, beta 3 (Homo sapiens, UniProt P13945); test: BioPrint panel: beta 3 (h) (antagonist); assay type: binding; conditions: 1 micromolar, read-out: percentage of inhibition of activity
T18 construct: purchased Eurofins Pharma Discovery Services (KinaseProfiler; Cerep BioPrint panel)
Text: as §1

[3] = tested on: human primary cell culture and co-culture systems; test: BioMAP Diversity PLUS phenotypic profiling; assay type: cell-based
Text: The concept of the BioMAP® Diversity PLUS™ Platform™ (DiscoverX) has been previously described. The platform is comprised of 12 specific combinations of human primary cell culture and co-culture systems stimulated with a range of physiological and disease relevant stimuli (S2 Table). The resulting activities define a bioactivity fingerprint that was used to search for similar patterns of biological responses across the BioMAP® reference database of >3,000 compounds, biologics, approved drugs and experimental agents. Compound 4 was tested at 0.111 μM, 0.333 μM, 1 μM and 3 μM concentrations.

mu (MOP) = target: T19, mu (MOP) (Homo sapiens, UniProt P35372); test: BioPrint panel: mu (MOP) (h) (agonist); assay type: binding; conditions: 1 micromolar, read-out: percentage of inhibition of activity
T19 construct: purchased Eurofins Pharma Discovery Services (KinaseProfiler; Cerep BioPrint panel)
Text: as §1

5-HT3 = target: T20, 5-HT3 (Homo sapiens, UniProt P46098); test: BioPrint panel: 5-HT3 (h) (antagonist); assay type: binding; conditions: 1 micromolar, read-out: percentage of inhibition of activity
T20 construct: purchased Eurofins Pharma Discovery Services (KinaseProfiler; Cerep BioPrint panel)
Text: as §1

kainate = test: BioPrint panel: kainate (agonist); assay type: binding; conditions: 1 micromolar
Text: as §1

IRK (InsR) = target: T21, IRK (InsR) (Homo sapiens, UniProt P06213); test: BioPrint panel: IRK (h) (InsR); assay type: biochemical; conditions: 1 micromolar, read-out: percentage of inhibition of activity
T21 construct: purchased Eurofins Pharma Discovery Services (KinaseProfiler; Cerep BioPrint panel)
Text: as §1

BZD (central) = test: BioPrint panel: BZD (central) (agonist); assay type: binding; conditions: 1 micromolar
Text: as §1

beta 2 = target: T22, beta 2 (Homo sapiens, UniProt P07550); test: BioPrint panel: beta 2 (h) (agonist); assay type: binding; conditions: 1 micromolar, read-out: percentage of inhibition of activity
T22 construct: purchased Eurofins Pharma Discovery Services (KinaseProfiler; Cerep BioPrint panel)
Text: as §1

CHO-K1 cells = test: CHO-K1 viability (ATPlite); assay type: cell-based; conditions: 25 μM
Experimental: The viability of NHBE and CHO-K1 cells was quantified using ATP as an indirect read out of the potential cytotoxicity of the compounds. […] Plates were shaken and covered with aluminium foil for 25 min. Luminescence was measured in an Envision reader (Perkin Elmer). Evaluation of viability in CHO-K1 cells was used as an internal compound cytotoxicity standard across cellular assays. […] The plates were incubated for 24 h at 37°C in 5% CO2. After the incubation period, the culture medium was removed and washed with 100 μl of DPBS. Test compounds were dissolved and serially diluted in 100% DMSO. A final 1/100 dilution of each concentration was performed using F12 culture medium with 0.5% FBS. A volume of 100 μl culture medium containing the compounds or 1% DMSO (for control wells) was added to the wells containing the cells and the plate was incubated again 24h. After 24h of compound exposure, cells were washed with DPBS. Then, 100 μl of PBS were added, followed by the addition of 100 μl of ATPlite™ reagent. The plate was shaken for 25 minutes using a microtiter plate shaker. Luminescence was measured using a Luminoskan Ascent luminometer (Thermo Fisher Scientific).
For CHO-K1 viability assays, a standard curve of cells was included in the plate. Luminescence values versus cell number were plotted and the data adjusted to a linear equation. Luminescence values of the samples were interpolated to obtain number of cells. IC50 values were obtained by non-linear regression using Activity Base software (IDBS) and a four-parameter log equation.

T3 sequence (P28482 whole entry): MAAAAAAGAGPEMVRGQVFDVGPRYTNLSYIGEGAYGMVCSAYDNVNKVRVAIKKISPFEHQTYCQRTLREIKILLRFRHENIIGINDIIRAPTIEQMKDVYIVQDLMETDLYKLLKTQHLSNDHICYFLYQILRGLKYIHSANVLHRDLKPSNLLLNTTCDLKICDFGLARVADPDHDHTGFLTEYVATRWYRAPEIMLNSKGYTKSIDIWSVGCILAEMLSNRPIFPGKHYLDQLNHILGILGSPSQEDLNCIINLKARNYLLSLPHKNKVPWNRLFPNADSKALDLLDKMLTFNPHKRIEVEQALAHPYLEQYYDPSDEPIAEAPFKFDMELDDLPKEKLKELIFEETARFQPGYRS
T20 sequence (P46098 24-478): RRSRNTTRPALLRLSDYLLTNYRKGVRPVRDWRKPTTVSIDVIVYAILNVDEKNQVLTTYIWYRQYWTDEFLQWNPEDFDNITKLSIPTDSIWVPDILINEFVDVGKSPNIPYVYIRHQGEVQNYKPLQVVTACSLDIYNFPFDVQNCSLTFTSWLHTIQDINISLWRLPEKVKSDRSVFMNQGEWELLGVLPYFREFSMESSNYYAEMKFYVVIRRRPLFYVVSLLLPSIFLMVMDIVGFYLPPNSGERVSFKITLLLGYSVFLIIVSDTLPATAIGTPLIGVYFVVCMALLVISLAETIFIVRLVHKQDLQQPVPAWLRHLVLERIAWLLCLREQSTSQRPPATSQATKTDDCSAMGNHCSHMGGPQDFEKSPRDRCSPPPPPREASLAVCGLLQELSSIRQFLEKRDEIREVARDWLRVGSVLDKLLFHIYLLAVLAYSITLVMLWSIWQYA
T8 sequence (Q01727 whole entry): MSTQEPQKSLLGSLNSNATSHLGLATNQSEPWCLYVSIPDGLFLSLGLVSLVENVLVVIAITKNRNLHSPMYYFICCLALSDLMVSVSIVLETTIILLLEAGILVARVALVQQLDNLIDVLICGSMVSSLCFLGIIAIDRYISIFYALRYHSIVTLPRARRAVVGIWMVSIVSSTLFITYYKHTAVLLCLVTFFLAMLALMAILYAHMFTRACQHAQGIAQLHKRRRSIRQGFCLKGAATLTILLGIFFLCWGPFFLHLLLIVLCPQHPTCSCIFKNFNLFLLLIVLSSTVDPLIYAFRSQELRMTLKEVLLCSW
T16 sequence (P55055 whole entry): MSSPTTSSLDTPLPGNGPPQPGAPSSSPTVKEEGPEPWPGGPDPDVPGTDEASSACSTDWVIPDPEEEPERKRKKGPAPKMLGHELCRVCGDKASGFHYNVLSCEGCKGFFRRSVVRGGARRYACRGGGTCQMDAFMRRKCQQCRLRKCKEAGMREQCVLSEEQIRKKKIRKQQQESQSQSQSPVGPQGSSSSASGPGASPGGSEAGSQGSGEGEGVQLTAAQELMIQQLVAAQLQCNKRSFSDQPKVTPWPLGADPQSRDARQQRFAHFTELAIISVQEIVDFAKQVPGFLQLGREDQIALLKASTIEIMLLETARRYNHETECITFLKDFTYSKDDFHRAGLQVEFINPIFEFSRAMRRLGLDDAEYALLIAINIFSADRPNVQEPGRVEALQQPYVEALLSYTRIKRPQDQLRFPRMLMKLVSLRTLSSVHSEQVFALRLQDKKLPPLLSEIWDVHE
T7 sequence (P18089 whole entry): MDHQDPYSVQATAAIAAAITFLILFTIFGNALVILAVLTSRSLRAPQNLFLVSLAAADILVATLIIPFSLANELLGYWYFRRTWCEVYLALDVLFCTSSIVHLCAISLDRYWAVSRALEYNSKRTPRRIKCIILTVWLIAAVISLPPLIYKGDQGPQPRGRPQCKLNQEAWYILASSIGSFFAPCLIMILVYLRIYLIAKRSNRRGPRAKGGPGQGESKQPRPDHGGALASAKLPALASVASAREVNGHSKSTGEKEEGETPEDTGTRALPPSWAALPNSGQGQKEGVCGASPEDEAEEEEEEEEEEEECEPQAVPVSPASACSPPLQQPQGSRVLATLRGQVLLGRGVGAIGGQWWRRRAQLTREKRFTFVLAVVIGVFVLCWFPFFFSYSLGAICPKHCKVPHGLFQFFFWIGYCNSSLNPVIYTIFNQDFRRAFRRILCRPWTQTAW
T14 sequence (P0DMS8 whole entry): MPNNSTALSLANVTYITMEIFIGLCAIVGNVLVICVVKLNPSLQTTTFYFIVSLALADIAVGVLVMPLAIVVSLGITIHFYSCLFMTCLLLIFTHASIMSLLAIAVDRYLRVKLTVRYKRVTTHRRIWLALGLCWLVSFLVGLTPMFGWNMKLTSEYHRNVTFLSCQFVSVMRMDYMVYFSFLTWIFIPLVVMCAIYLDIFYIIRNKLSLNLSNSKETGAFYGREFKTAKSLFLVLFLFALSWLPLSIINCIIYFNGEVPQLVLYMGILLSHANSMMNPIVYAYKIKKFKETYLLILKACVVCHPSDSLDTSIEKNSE
T21 sequence (P06213 28-1382): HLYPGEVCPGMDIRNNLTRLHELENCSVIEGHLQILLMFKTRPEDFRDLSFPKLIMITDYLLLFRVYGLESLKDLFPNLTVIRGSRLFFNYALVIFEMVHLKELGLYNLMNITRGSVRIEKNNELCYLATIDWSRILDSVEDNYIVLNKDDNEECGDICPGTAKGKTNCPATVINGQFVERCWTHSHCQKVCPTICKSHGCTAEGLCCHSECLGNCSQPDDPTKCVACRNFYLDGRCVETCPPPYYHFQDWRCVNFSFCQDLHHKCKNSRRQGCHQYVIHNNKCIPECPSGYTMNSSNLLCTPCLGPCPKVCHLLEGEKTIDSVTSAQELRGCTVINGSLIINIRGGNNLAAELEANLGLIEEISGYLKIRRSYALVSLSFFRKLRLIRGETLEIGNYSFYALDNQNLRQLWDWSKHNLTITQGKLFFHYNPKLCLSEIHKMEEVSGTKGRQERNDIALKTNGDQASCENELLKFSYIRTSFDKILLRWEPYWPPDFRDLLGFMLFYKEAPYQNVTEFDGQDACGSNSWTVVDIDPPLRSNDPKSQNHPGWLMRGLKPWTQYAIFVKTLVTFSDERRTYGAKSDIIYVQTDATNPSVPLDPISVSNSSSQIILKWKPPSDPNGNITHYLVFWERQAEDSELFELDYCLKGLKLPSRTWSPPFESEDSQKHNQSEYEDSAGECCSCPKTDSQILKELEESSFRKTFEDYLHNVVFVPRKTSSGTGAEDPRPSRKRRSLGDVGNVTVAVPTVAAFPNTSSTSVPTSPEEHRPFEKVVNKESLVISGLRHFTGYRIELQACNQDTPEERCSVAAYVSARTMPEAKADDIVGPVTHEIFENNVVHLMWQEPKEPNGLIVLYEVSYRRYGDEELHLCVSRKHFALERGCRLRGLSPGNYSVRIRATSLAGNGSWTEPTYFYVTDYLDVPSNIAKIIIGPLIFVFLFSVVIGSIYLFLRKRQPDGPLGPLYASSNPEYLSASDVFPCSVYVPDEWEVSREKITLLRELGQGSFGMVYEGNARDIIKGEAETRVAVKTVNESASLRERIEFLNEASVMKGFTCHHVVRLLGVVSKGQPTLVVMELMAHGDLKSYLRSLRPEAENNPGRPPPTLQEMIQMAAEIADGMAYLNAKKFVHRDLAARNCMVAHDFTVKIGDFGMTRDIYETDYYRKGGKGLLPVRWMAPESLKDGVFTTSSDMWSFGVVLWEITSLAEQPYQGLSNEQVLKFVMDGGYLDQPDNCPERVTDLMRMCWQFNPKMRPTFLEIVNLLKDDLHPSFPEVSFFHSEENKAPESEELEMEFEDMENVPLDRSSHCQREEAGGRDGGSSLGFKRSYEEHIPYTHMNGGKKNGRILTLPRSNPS
T18 sequence (P13945 whole entry): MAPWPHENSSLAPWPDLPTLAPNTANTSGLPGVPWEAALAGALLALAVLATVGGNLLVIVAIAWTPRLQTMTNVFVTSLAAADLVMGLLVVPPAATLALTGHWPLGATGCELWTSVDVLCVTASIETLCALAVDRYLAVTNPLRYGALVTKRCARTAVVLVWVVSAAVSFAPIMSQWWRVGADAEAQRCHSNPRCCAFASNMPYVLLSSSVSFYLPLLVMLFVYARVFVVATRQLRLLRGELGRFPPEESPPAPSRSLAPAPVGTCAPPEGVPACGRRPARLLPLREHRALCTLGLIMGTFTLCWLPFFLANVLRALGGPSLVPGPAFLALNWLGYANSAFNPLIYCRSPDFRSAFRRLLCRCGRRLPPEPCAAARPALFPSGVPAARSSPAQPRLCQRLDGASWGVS
T9 sequence (P41595 whole entry): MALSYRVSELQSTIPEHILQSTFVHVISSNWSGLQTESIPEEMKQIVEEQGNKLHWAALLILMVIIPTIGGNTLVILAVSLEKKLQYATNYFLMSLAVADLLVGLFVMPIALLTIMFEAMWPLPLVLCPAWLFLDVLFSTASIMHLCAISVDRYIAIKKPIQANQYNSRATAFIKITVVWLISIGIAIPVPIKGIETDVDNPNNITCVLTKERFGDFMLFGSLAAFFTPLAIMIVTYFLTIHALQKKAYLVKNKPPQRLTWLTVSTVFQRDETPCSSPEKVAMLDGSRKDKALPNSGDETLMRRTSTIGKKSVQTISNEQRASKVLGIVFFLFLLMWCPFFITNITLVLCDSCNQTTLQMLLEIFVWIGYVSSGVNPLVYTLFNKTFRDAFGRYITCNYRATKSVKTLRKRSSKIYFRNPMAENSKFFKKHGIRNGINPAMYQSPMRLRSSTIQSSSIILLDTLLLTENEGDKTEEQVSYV
T6 sequence (P35414 whole entry): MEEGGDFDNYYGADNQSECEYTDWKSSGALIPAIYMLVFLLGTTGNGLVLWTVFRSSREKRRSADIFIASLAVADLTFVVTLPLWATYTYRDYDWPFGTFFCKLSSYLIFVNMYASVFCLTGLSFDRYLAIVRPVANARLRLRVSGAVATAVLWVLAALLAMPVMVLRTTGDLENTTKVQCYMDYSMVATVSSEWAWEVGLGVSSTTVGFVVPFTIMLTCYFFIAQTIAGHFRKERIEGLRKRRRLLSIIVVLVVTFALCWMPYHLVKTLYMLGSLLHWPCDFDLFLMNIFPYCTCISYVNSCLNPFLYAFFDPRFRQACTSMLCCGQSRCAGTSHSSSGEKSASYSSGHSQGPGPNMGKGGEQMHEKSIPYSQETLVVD

SMILES: Cn1cc(-c2cccc(-c3nc(C(=O)NC4C5CC6CC4CC(O)(C6)C5)c(N)nc3N)c2)cn1 (stereo not drawn) [compound 4]
- inhibition at 1 µM (acetylcholinesterase): 6.2%
- inhibition at 1 µM (beta 1): -1.8%
- inhibition at 1 µM (ERK2 (P42mapk)): 14.3%
- inhibition at 1 µM (5-HT1A): -1.1%
- inhibition at 1 µM (CCR2): 2.6%
- inhibition at 1 µM (APJ (apelin)): 0.8%
- inhibition at 1 µM (alpha 2B): -6.6%
- inhibition at 1 µM (MC1): -2.3%
- percentage of inhibition of activity [1]: INTER
- inhibition at 1 µM (5-HT2B): -7.9%
- percentage of inhibition of activity (Na+ channel (site 2)): 29.7%
- inhibition at 1 µM (GABAB(1b)): 15.4%
- inhibition at 1 µM [2]: -15.3%
- inhibition at 1 µM (COX1): -4.3%
- inhibition at 1 µM (N neuronal a4 b2): -13.9%
- inhibition at 1 µM (A3): 3.5%
- inhibition at 1 µM (ERalpha): -10.3%
- inhibition at 1 µM (LXRbeta): 4.1%
- percentage of inhibition of activity (Guanylyl cylcase): 0%
- inhibition at 1 µM (alpha 1A): 2.8%
- inhibition at 1 µM (beta 3): 8.1%
- cytotoxicity in the 3C system ([3]; 1 μM, 3C (HuVEC)): cytotoxicity
- cytotoxicity in BioMAP activated cellular systems ([3]; 3 μM): cytotoxic to B cells, fibroblasts and particularly endothelial cells
- IL-8 levels in lung fibroblasts (MyoF) ([3]; 0.111 and 0.333 μM): increased
- VCAM-1 expression in endothelial cells (3C) ([3]; 0.111 and 0.333 μM): reduced
- anti-proliferative activity in BioMAP systems ([3]; 0.111 and 0.333 μM): anti-proliferative to endothelial cells, T and B cells, smooth muscle cells and fibroblasts
- sIL10 levels in the endothelial cell / macrophage system (/Mphg) ([3]; 0.111 and 0.333 μM): decreased
- sIL17A, sIL17F and sIL6 levels in the B / PMBC cell system (BT) ([3]; 0.111 and 0.333 μM): decreased
- endpoints inhibited out of 32 measured in the NHBE (BE3C) and NHBE / fibroblasts (B4FT) systems ([3]; 0.111–0.333 μM, tPA and Eotaxin 3): 2
- inhibition at 1 µM (mu (MOP)): -2.6%
- inhibition at 1 µM (5-HT3): -0.4%
- percentage of inhibition of activity (kainate): 4.1%
- inhibition at 1 µM (IRK (InsR)): 5%
- percentage of inhibition of activity (BZD (central)): -11.1%
- inhibition at 1 µM (beta 2): 1.6%

SMILES: COc1c(NC(=O)c2ccc(C)c(-c3nnc4c(NCC(C)(C)C)nccn34)c2)cc(C(C)(C)C)cc1NS(C)(=O)=O [compound 7, reference compound]
- Inhibition of CHO viability at [25 μM] % Inhibition ± SD (CHO-K1 cells): 0.39 ± 11%
